Legend:
[1] = system: Copepodids (juvenile sea lice stage of Lepeophtheirus salmonis); experiment: Juvenile sea lice contact assay; conditions: approximately 24 hours continuous exposure in seawater, read-out: Sea lice inhibition (% of dead+damaged copepodids); for inhibition at 0.001 µM: test concentration 1 nM; for inhibition at 0.01 µM: test concentration 10 nM; for inhibition at 0.1 µM: test concentration 100 nM; for inhibition at 10 pM: test concentration 0.01 nM
Method: Copepodids (juvenile sea lice stage of Lepeophtheirus salmonis) were exposed to seawater spiked with declining concentrations of a test compound (dissolved in a DMSO sea-water mixture). Sea lice inhibition (% of dead+damaged copepodids) was assessed after approximately 24 hours of continuous exposure. The vitality of used parasites was confirmed in a negative (solvent) control group.

[2] = system: Mobile stages of sea lice (pre-adults, adults of Lepeophtheirus salmonis); experiment: Adult sea lice contact assay; conditions: assessed after approximately 1 and 24 hours of continuous exposure, read-out: EC50 (sea lice inhibition, dead+damaged sea lice)
Method: Mobile stages of sea lice (i.e., pre-adults, adults of Lepeophtheirus salmonis) were exposed to seawater spiked with declining concentrations of a test compound (dissolved in a PEG sea-water mixture). Sea lice inhibition (% of dead+damaged sea lice) was assessed after approximately 1 and 24 hours of continuous exposure in comparison to a negative (solvent) control group.

SMILES: O=C(NCCCCl)c1cc(NC(=O)C2C(c3ccc(F)c(Cl)c3)C2(Cl)Cl)cc(F)c1F (racemic) [Compound 1574]
- inhibition at 0.001 µM [1]: 80%

SMILES: O=C(NC1(C(F)(F)F)CC1)c1cc(NC(=O)C2C(c3cc(F)c(F)c(F)c3)C2(Cl)Cl)ccc1Cl (stereo not drawn) [Compound 1604]
- EC50 [2]: 10 to 25 nM
- inhibition at 0.01 µM [1]: 100%

SMILES: O=C(NCC(F)(F)F)c1cc(NC(=O)C2C(c3ccc(F)c(Cl)c3)C2(Cl)Cl)cc(F)c1F (racemic) [Compound 1554]
- inhibition at 0.01 µM [1]: ≥ 80%

SMILES: O=C(NCC(F)(F)F)c1cc(NC(=O)C2C(c3ccc(F)c(Cl)c3)C2(Cl)Cl)cc(Cl)c1F (racemic) [Compound 1570]
- inhibition at 0.01 µM [1]: ≥ 80%

SMILES: O=C(NCC(F)(F)F)c1cc(NC(=O)C2C(c3cc(Cl)cc(Cl)c3)C2(Cl)Cl)ccc1Cl (racemic) [Compound 1500]
- inhibition at 0.01 µM [1]: ≥ 80%

SMILES: Cc1cc(C2C(C(=O)Nc3ccc(Cl)c(C(=O)NC4(C#N)CC4)c3)C2(Cl)Cl)cc(Cl)c1Cl (racemic) [Compound 1514]
- EC50 [2]: 10 to 25 nM
- inhibition at 0.1 µM [1]: 100%

SMILES: C#CCNC(=O)c1cc(NC(=O)C2C(c3cc(Cl)cc(Cl)c3)C2(Cl)Cl)cc(F)c1F (stereo not drawn) [Compound 1629]
- inhibition at 0.1 µM [1]: 100%

SMILES: O=C(NCCF)c1cc(NC(=O)C2C(c3ccc(F)c(Cl)c3)C2(Cl)Cl)ccc1Cl (racemic) [Compound 1536]
- inhibition at 10 pM [1]: 100%

SMILES: N#CC1(NC(=O)c2cc(NC(=O)C3C(c4cc(Cl)cc(C(F)F)c4)C3(Cl)Cl)ccc2Cl)CC1 (racemic) [Compound 1545]
- EC50 [2]: 10 to 25 nM
- inhibition at 0.1 µM [1]: 100%

SMILES: CC(NC(=O)c1cc(NC(=O)C2C(c3cc(F)c(F)c(F)c3)C2(Cl)Cl)ccc1Cl)C(F)(F)F (racemic) [Compound 1602]
- EC50 [2]: 10 to 25 nM
- inhibition at 0.01 µM [1]: 100%

SMILES: O=C(NC1CC(F)(F)C1)c1cc(NC(=O)C2C(c3cccc(C(F)(F)F)c3)C2(Cl)Cl)ccc1Cl (stereo not drawn) [Compound 1611]
- inhibition at 0.1 µM [1]: 100%

SMILES: N#CC1(NC(=O)c2cc(NC(=O)C3C(c4cc(F)c(Br)c(F)c4)C3(Cl)Cl)ccc2Cl)CC1 (racemic) [Compound 1544]
- inhibition at 0.1 µM [1]: 100%

SMILES: N#CC1(NC(=O)c2cc(NC(=O)C3C(c4ccc(C(F)F)c(Cl)c4)C3(Cl)Cl)ccc2Cl)CC1 (racemic) [Compound 1548]
- EC50 [2]: 10 to 25 nM

SMILES: O=C(NC1CC(F)(F)C1)c1cc(NC(=O)C2C(c3cccc(C(F)(F)F)c3)C2(Cl)Cl)ccc1Cl (racemic) [Compound 1508]
- EC50 [2]: 1 to 10 nM
- inhibition at 0.01 µM [1]: 100%

SMILES: C#CCNC(=O)c1cc(NC(=O)C2C(c3cc(C(F)(F)F)cc(C(F)(F)F)c3)C2(Cl)Cl)ccc1Cl (stereo not drawn) [Compound 1614]
- EC50 [2]: ≤ 1 nM
- inhibition at 0.001 µM [1]: 80%

SMILES: N#CC1(NC(=O)c2cc(NC(=O)C3C(c4cccc(C(F)F)c4)C3(Cl)Cl)ccc2Cl)CC1 (racemic) [Compound 1549]
- inhibition at 0.1 µM [1]: 100%

SMILES: O=C(NCC(F)(F)F)c1cc(NC(=O)C2C(c3ccc(F)c(F)c3)C2(Cl)Cl)ccc1Cl (stereo not drawn) [Compound 1591]
- inhibition at 0.1 µM [1]: 100%

SMILES: N#CC1(NC(=O)c2cc(NC(=O)C3C(c4cc(C(F)(F)F)cc(C(F)(F)F)c4)C3(Cl)Cl)ccc2Cl)CC1 (stereo not drawn) [Compound 1612]
- EC50 [2]: 10 to 25 nM
- inhibition at 0.01 µM [1]: 100%

SMILES: O=C(NC1CC(F)(F)C1)c1cc(NC(=O)C2C(c3cc(Cl)cc(Cl)c3)C2(Cl)Cl)ccc1Cl (stereo not drawn) [Compound 1531]
- inhibition at 0.01 µM [1]: 100%

SMILES: O=C(NCCC(F)(F)F)c1c(F)ccc(NC(=O)C2C(c3ccc(F)c(Cl)c3)C2(Cl)Cl)c1F (racemic) [Compound 1573]
- inhibition at 0.01 µM [1]: 100%

SMILES: CC(C)CNC(=O)c1cc(NC(=O)C2C(c3cc(Cl)cc(Cl)c3)C2(Cl)Cl)ccc1Cl (racemic) [Compound 1502]
- inhibition at 0.01 µM [1]: 100%

SMILES: Cc1c(F)cc(NC(=O)C2C(c3ccc(F)c(Cl)c3)C2(Cl)Cl)cc1C(=O)NCC(F)(F)F (racemic) [Compound 1567]
- inhibition at 0.001 µM [1]: 100%

SMILES: O=C(NCCF)c1cc(NC(=O)C2C(c3cc(Cl)cc(Cl)c3)C2(Cl)Cl)cc(Cl)c1Cl (racemic) [Compound 1539]
- inhibition at 0.01 µM [1]: 100%

SMILES: O=C(NCC(F)(F)F)c1cc(NC(=O)C2C(c3ccc(F)c(Cl)c3)C2(Cl)Cl)ccc1F (racemic) [Compound 1559]
- inhibition at 10 pM [1]: 100%

SMILES: CC1(NC(=O)c2cc(NC(=O)C3C(c4cc(Cl)cc(Cl)c4)C3(Cl)Cl)ccc2Cl)CC1 (racemic) [Compound 1523]
- inhibition at 0.001 µM [1]: 80%

SMILES: O=C(NC1(C(F)(F)F)CC1)c1cc(NC(=O)C2C(c3cc(Cl)cc(Cl)c3)C2(Cl)Cl)ccc1F (stereo not drawn) [Compound 1627]
- inhibition at 0.1 µM [1]: ≥ 80%

SMILES: O=C(NCCC(F)(F)F)c1cc(NC(=O)C2C(c3cc(Cl)cc(Cl)c3)C2(Cl)Cl)cc(Cl)c1Cl (racemic) [Compound 1552]
- inhibition at 0.01 µM [1]: ≥ 80%

SMILES: CCNC(=O)c1cc(NC(=O)C2C(c3cc(Cl)cc(Cl)c3)C2(Cl)Cl)ccc1Cl (racemic) [Compound 1509]
- inhibition at 0.01 µM [1]: 100%

SMILES: CC1(NC(=O)c2cc(NC(=O)C3C(c4cc(Cl)cc(Cl)c4)C3(Cl)Cl)cc(F)c2F)CC1 (stereo not drawn) [Compound 1616]
- inhibition at 0.1 µM [1]: 100%

SMILES: Cc1c(Cl)cc(NC(=O)C2C(c3ccc(F)c(Cl)c3)C2(Cl)Cl)cc1C(=O)NCCCCl (racemic) [Compound 1566]
- inhibition at 0.01 µM [1]: 100%

SMILES: Cc1c(Cl)cc(NC(=O)C2C(c3ccc(F)c(Cl)c3)C2(Cl)Cl)cc1C(=O)NCC(F)(F)F (racemic) [Compound 1561]
- inhibition at 0.01 µM [1]: 100%

SMILES: O=C(NCCC(F)(F)F)c1cc(NC(=O)C2C(c3ccc(F)c(Cl)c3)C2(Cl)Cl)ccc1Cl (racemic) [Compound 1538]
- inhibition at 10 pM [1]: 100%

SMILES: CCNC(=O)c1cc(NC(=O)C2C(c3cc(Cl)cc(Cl)c3)C2(Cl)Cl)cc(Cl)c1Cl (racemic) [Compound 1553]
- inhibition at 0.01 µM [1]: 100%

SMILES: O=C(NCC(F)(F)F)c1cc(NC(=O)C2C(c3ccc(F)c(Cl)c3)C2(Cl)Cl)ccc1Cl (racemic) [Compound 1537]
- inhibition at 0.01 µM [1]: 100%

SMILES: N#CC1(NC(=O)c2cc(NC(=O)C3C(c4ccc(Cl)c(Cl)c4)C3(Cl)Cl)ccc2Cl)CC1 (racemic) [Compound 1501]
- inhibition at 0.01 µM [1]: ≥ 80%

SMILES: O=C(NCC(F)(F)F)c1cc(NC(=O)C2C(c3cc(F)c(F)c(F)c3)C2(Cl)Cl)ccc1Cl (racemic) [Compound 1551]
- inhibition at 10 pM [1]: 100%

SMILES: N#CC1(NC(=O)c2cc(NC(=O)C3C(c4cc(F)cc(C(F)F)c4)C3(Cl)Cl)ccc2Cl)CC1 (racemic) [Compound 1547]
- EC50 [2]: 1 to 10 nM
- inhibition at 0.1 µM [1]: 100%

SMILES: O=C(NCC(F)(F)F)c1cc(NC(=O)C2C(c3ccc(F)c(Cl)c3)C2(Cl)Cl)cc(F)c1Cl (racemic) [Compound 1565]
- inhibition at 10 pM [1]: 100%

SMILES: N#CC1(NC(=O)c2cc(NC(=O)C3C(c4ccc(Cl)c(C(F)F)c4)C3(Cl)Cl)ccc2Cl)CC1 (racemic) [Compound 1546]
- EC50 [2]: 10 to 25 nM
- inhibition at 0.1 µM [1]: 100%

SMILES: O=C(NC1CCOC1=O)c1cc(NC(=O)C2C(c3cc(Cl)cc(Cl)c3)C2(Cl)Cl)ccc1Cl (racemic) [Compound 1526]
- inhibition at 0.01 µM [1]: 100%

SMILES: N#CC1(NC(=O)c2cc(NC(=O)C3C(c4cc(C(F)(F)F)cc(C(F)(F)F)c4)C3(Cl)Cl)cc(F)c2F)CC1 (stereo not drawn) [Compound 1615]
- EC50 [2]: 1 to 10 nM
- inhibition at 0.01 µM [1]: 100%

SMILES: Cc1cc(NC(=O)C2C(c3ccc(F)c(Cl)c3)C2(Cl)Cl)cc(C(=O)NCCCCl)c1Cl (racemic) [Compound 1557]
- inhibition at 0.01 µM [1]: 100%

SMILES: N#Cc1cc(Cl)cc(C2C(C(=O)Nc3ccc(Cl)c(C(=O)NC4(C#N)CC4)c3)C2(Cl)Cl)c1 (racemic) [Compound 1532]
- EC50 [2]: 10 to 25 nM
- inhibition at 0.1 µM [1]: 100%

SMILES: C#CCNC(=O)c1cc(NC(=O)C2C(c3cc(Cl)cc(Cl)c3)C2(Cl)Cl)ccc1F (stereo not drawn) [Compound 1631]
- inhibition at 0.1 µM [1]: 100%

SMILES: N#CC1(NC(=O)c2cc(NC(=O)C3C(c4cc(Cl)cc(Cl)c4)C3(Cl)Cl)ccc2Cl)CC1 (racemic) [Compound 1515]
- inhibition at 0.01 µM [1]: 100%

SMILES: O=C(NC1COC1)c1cc(NC(=O)C2C(c3cc(Cl)cc(Cl)c3)C2(Cl)Cl)ccc1Cl (racemic) [Compound 1510]
- inhibition at 0.01 µM [1]: 100%

SMILES: O=C(NCCF)c1cc(NC(=O)C2C(c3ccc(F)c(Cl)c3)C2(Cl)Cl)ccc1F (racemic) [Compound 1558]
- inhibition at 10 pM [1]: 100%

SMILES: CC(C)(NC(=O)c1cc(NC(=O)C2C(c3cc(F)c(F)c(F)c3)C2(Cl)Cl)ccc1Cl)C(F)(F)F (stereo not drawn) [Compound 1603]
- EC50 [2]: 10 to 25 nM
- inhibition at 0.01 µM [1]: ≥ 80%

SMILES: Cc1cc(Cl)cc(C2C(C(=O)Nc3ccc(Cl)c(C(=O)NC4CC(F)(F)C4)c3)C2(Cl)Cl)c1 (racemic) [Compound 1513]
- inhibition at 0.01 µM [1]: 100%

SMILES: O=C(NCCCCl)c1cc(NC(=O)C2C(c3ccc(F)c(Cl)c3)C2(Cl)Cl)ccc1F (racemic) [Compound 1563]
- inhibition at 10 pM [1]: 100%

SMILES: O=C(NCC(F)(F)F)c1cc(NC(=O)C2C(c3cc(C(F)(F)F)cc(C(F)(F)F)c3)C2(Cl)Cl)ccc1Cl (stereo not drawn) [Compound 1613]
- EC50 [2]: ≤ 1 nM
- inhibition at 0.01 µM [1]: 100%

SMILES: N#CC1(NC(=O)c2cc(NC(=O)C3C(c4ccc(F)c(Cl)c4)C3(Cl)Cl)cc(F)c2F)CC1 (stereo not drawn) [Compound 1589]
- EC50 [2]: ≤ 1 nM
- inhibition at 0.001 µM [1]: 80%
